The source of these data is ChEMBL document CHEMBL3217457, “Carbazolepyrrolo[2,1-c][1,4]benzodiazepine conjugates: design, synthesis, and biological evaluation” (Medchemcomm, 2011).

Assay [1] in a line: Growth inhibition of human Gurav cells. The class given is functional.
A further assay has as its system HOP-62. The experiment in a line: Growth inhibition of human HOP62 cells. The class given is functional.
In the next assay the test system is A2780. Nature of the assay: Growth inhibition of human A2780 cells. The class given is functional.
For the next assay, the system named is KB. Nature of the assay: Growth inhibition of human KB cells. The class given is functional.
The subject of another assay is Calf thymus DNA. Nature of the assay: Binding affinity to calf thymus DNA assessed as change in melting temperature at compound to DNA ratio of 1:5 after 18 hrs by thermal denaturation analysis. Format: nucleic-acid assay. The note with it: Bos taurus.
In a further assay the test system is SiHa. The experiment in a line: Growth inhibition of human SiHa cells. Format: functional.
Assay [2] deals with MCF7. The experiment in a line: Growth inhibition of human MCF7 cells. The class given is functional.
Another assay has as its system A549. Nature of the assay: Growth inhibition of human A549 cells. Format: functional.
Another assay relates to ZR-75-1. Nature of the assay: Growth inhibition of human ZR-75-1 cells. Format: functional.
The test system of the next assay is COLO 205. The experiment in a line: Growth inhibition of human COLO205 cells. Format: functional.
For another assay, the system named is PC-3. Nature of the assay: Growth inhibition of human PC3 cells. Format: functional.
Assay [3] relates to MCF7. Nature of the assay: Cell cycle arrest in human MCF7 cells assessed as accumulation at G1 phase at 4 uM after 24 hrs by propidium iodide staining based flow cytometry (reference value: 57.98%). Format: functional.
The test system of assay [4] is MCF7. Nature of the assay: Cell cycle arrest in human MCF7 cells assessed as accumulation at G0 phase at 4 uM after 24 hrs by propidium iodide staining based flow cytometry (reference value: 2.77%). Format: functional. (In general: A flow cytometer gives signals particle by particle.)
In assay [5] the test system is MCF7. Nature of the assay: Cell cycle arrest in human MCF7 cells assessed as accumulation at S phase at 4 uM after 24 hrs by propidium iodide staining based flow cytometry (reference value: 14.30%). The class given is functional.
The subject of assay [6] is MCF7. Nature of the assay: Cell cycle arrest in human MCF7 cells assessed as accumulation at G2/M phase at 4 uM after 24 hrs by propidium iodide staining based flow cytometry (reference value: 24.95%). Format: functional.
Assay [7] has as its system MCF7. The experiment in a line: Cell cycle arrest in human MCF7 cells assessed as accumulation at G0/G1 phase at 4 uM after 24 hrs by propidium iodide staining based flow cytometry (reference value: 60.75%). The class given is functional.

Consider `COc1cc2c(cc1OCCCn1c3ccccc3c3ccccc31)N=C[C@@H]1CCCN1C2=O`, for which the concentration for 50% growth inhibition (GI50) in [1] stood at 1.6 µM; in the assay on HOP-62 it was 1.93 µM; in the assay on A2780, 1.21 µM; in the assay on KB it was 1.87 µM; in the assay on SiHa it was 1.7 µM; in the assay on MCF7 [2] it was 1.85 µM. Besides, the 50% growth inhibitory concentration (GI50) was found to be 1.84 µM in the assay with A549, 1.89 µM in the assay with ZR-75-1 and 1.68 µM in the assay with COLO 205. For the same molecule, the ΔTm with Calf thymus DNA was 4 °C.

With `COc1cc2c(cc1OCCCCn1c3ccccc3c3ccccc31)N=C[C@@H]1CCCN1C2=O`, the GI50 in assay [1] was 1.6 µM; with HOP-62, 1.93 µM; in the assay with A2780, 1.57 µM; in the assay on KB, 1.87 µM; with SiHa, 1.7 µM; in the assay on MCF7 [2] it was 2.21 µM. Moreover, the results for the GI50 with A549, with ZR-75-1 and with COLO 205 were 1.92 µM, 1.81 µM and 1.7 µM, respectively. In the assay on Calf thymus DNA, the ΔTm was found to be 3.5 °C.

In the case of `COc1cc2c(cc1OCCCCN1CCN(CCCn3c4ccccc4c4ccccc43)CC1)N=C[C@@H]1CCCN1C2=O`, the GI50 in [1] was 0.15 µM; in the assay with HOP-62, 0.11 µM; with A2780, 0.14 µM; with KB it was 0.16 µM; with SiHa it was 0.16 µM; with PC-3, 0.14 µM. Further, the GI50 is 0.15 µM in the assay on MCF7 [2], 0.14 µM in the assay on A549, 0.16 µM with ZR-75-1 and 0.17 µM in the assay on COLO 205. Besides, in the assay on Calf thymus DNA, the thermal shift (ΔTm) worked out at 7.9 °C.

For the molecule `COc1cc2c(cc1OCCCN1CCN(CCCCn3c4ccccc4c4ccccc43)CC1)N=C[C@@H]1CCCN1C2=O`, the concentration for 50% growth inhibition (GI50) worked out at 0.13 µM in [1]; 0.1 µM in the assay on HOP-62; 0.11 µM with A2780; 0.14 µM in the assay on KB; 0.13 µM in the assay with SiHa; 0.11 µM in the assay on PC-3. Moreover, the GI50 was 0.15 µM in the assay on MCF7 [2], 0.12 µM in the assay with A549, 0.15 µM in the assay with ZR-75-1 and 0.14 µM in the assay on COLO 205. For the same molecule, the ΔTm with Calf thymus DNA worked out at 8.5 °C.

In the case of `COc1ccc(-c2ccc3c(c2)c2cc(-c4ccc(OC)cc4)ccc2n3CCCN2CCN(CCCOc3cc4c(cc3OC)C(=O)N3CCC[C@H]3C=N4)CC2)cc1`, the GI50 in assay [1] came out at 0.12 µM; with HOP-62, 0.1 µM; in the assay with A2780, 0.01 µM; in the assay with KB, 0.11 µM; in the assay with SiHa, 0.12 µM; in the assay with PC-3 it was 0.12 µM. The GI50 is 0.04 µM in the assay with MCF7 [2], 0.13 µM with A549, 0.13 µM with ZR-75-1 and 0.08 µM with COLO 205. In the assay with Calf thymus DNA, the shift in melting temperature (ΔTm) was 7.2 °C.

Take `COc1cccc2c1C(=O)c1c(O)c3c(c(O)c1C2=O)C[C@@](O)(C(=O)CO)C[C@@H]3O[C@H]1C[C@H](N)[C@H](O)[C@H](C)O1` [DOXORUBICIN]: the GI50 amounted to 0.16 µM in assay [1]; 0.14 µM in the assay with HOP-62; 0.16 µM in the assay on A2780; 0.17 µM with KB; 0.17 µM in the assay on SiHa; 1.83 µM in the assay with PC-3. The GI50 in the assay with MCF7 [2] is 0.17 µM; with COLO 205, 0.14 µM.

Turning to `COc1cc2c(cc1OCCCCCCn1c3ccccc3c3ccccc31)N=C[C@@H]1CCCN1C2=O`, the GI50 was determined as 1.71 µM in assay [1]; 1.58 µM in the assay with HOP-62; 1.7 µM in the assay on A2780; 1.95 µM with KB; 1.58 µM in the assay with SiHa; 1.65 µM in the assay with MCF7 [2]. The concentration for 50% growth inhibition (GI50) with A549 worked out at 1.5 µM; in the assay with ZR-75-1, 2.14 µM; with COLO 205, 1.62 µM. For the same molecule, in the assay on Calf thymus DNA, the thermal shift (ΔTm) was found to be 4.7 °C.

On to `COc1ccc(-c2ccc3[nH]c4ccc(-c5ccc(OC)cc5)cc4c3c2)cc1`, for which the Activity with MCF7 [3] was 62.24%; in the assay with MCF7 [4] it was 4.39%; in the assay with MCF7 [5], 11.84%; in the assay with MCF7 [6] it was 21.53%; with MCF7 [7], 66.63%.

With `COc1ccc(-c2ccc3c(c2)c2cc(-c4ccc(OC)cc4)ccc2n3CCCOc2cc3c(cc2OC)C(=O)N2CCC[C@H]2C=N3)cc1`, the concentration for 50% growth inhibition (GI50) stood at 0.11 µM with HOP-62; 0.15 µM in the assay on A2780; 0.18 µM in the assay on KB; 0.17 µM with SiHa; 0.16 µM in the assay on PC-3; 0.13 µM with MCF7 [2]. The values for the concentration for 50% growth inhibition (GI50) in the assay on A549 and in the assay with COLO 205 were 0.18 µM and 0.17 µM, respectively. The ΔTm in the assay on Calf thymus DNA turned out to be 4.8 °C.

Regarding `COc1ccc(-c2ccc3c(c2)c2cc(-c4ccc(OC)cc4)ccc2n3CCCCCOc2cc3c(cc2OC)C(=O)N2CCC[C@H]2C=N3)cc1`, the GI50 turned out to be 0.12 µM with HOP-62; 0.14 µM with A2780; 0.17 µM in the assay with KB; 0.17 µM in the assay with SiHa; 0.15 µM with PC-3; 0.14 µM in the assay on MCF7 [2]. The values for the GI50 with A549 and in the assay on COLO 205 were 0.16 µM and 0.18 µM, respectively. Besides, in the assay on Calf thymus DNA, the ΔTm worked out at 5.9 °C.

In the case of `COc1cc2c(cc1O)N=C[C@@H]1CCCN1C2=O`, the Activity with MCF7 [3] came to 63.79%; in the assay with MCF7 [4], 3.95%; in the assay on MCF7 [5] it was 12.2%; in the assay with MCF7 [6], 20.07%; in the assay on MCF7 [7], 67.74%. Besides, the 50% growth inhibitory concentration (GI50) stood at 0.17 µM in [1]; 0.15 µM in the assay with HOP-62; 0.14 µM in the assay with A2780; 0.17 µM in the assay with KB; 0.17 µM with SiHa; 0.2 µM with PC-3. In addition, the GI50 was found to be 0.17 µM with MCF7 [2], 0.16 µM with A549, 2.34 µM in the assay on ZR-75-1 and 0.11 µM with COLO 205.

With `COc1cc2c(cc1OCCCCN1CCN(CCCCn3c4ccccc4c4ccccc43)CC1)N=C[C@@H]1CCCN1C2=O`, the GI50 in assay [1] was 0.17 µM; in the assay with HOP-62 it was 0.08 µM; with A2780, 0.16 µM; with KB it was 0.15 µM; in the assay on SiHa, 0.15 µM; in the assay with PC-3 it was 0.1 µM. Besides, the concentration for 50% growth inhibition (GI50) in the assay on MCF7 [2] was 0.12 µM; with A549 it was 0.13 µM; in the assay with ZR-75-1 it was 0.15 µM; in the assay with COLO 205, 0.16 µM. The ΔTm with Calf thymus DNA turned out to be 8.4 °C.

In the case of `COc1ccc(-c2ccc3c(c2)c2cc(-c4ccc(OC)cc4)ccc2n3CCCCOc2cc3c(cc2OC)C(=O)N2CCC[C@H]2C=N3)cc1`, the Activity was found to be 62.6% in the assay with MCF7 [3]; 4.4% in the assay with MCF7 [4]; 11.12% with MCF7 [5]; 21.88% in the assay with MCF7 [6]; 67% with MCF7 [7]. The 50% growth inhibitory concentration (GI50) with HOP-62 turned out to be 0.14 µM; in the assay with A2780 it was 0.16 µM; with KB, 0.19 µM; in the assay on SiHa, 0.17 µM; with PC-3, 0.16 µM; with MCF7 [2], 0.15 µM. In addition, the GI50 in the assay with A549 and with COLO 205 was 0.19 µM in each case. Besides, the ΔTm with Calf thymus DNA was determined as 4.3 °C.

One may read the GI50 as the concentration that inhibits growth by half. What is called ΔTm is the shift of the melting midpoint relative to a reference.
